≈ marks a conversion by molar mass, not a printed value.
Details: buffer; pH 7.4; 200.0 µM

Row | SMILES | solubility kinetic [µg/mL]
1 | O=C(O)c1[nH]c2ccccc2c1C=NCc1ccccc1Cl | 46.3 (≈ 148 µM)
2 | N/C(Cc1nc(-c2ccc(Cl)cc2)cs1)=N/O | 32.3 (≈ 121 µM)
3 | COc1ccc2oc(C(=O)OCC(=O)N3CCC(C)CC3)c(C)c2c1 | 41.8 (≈ 121 µM)
4 | O=C(CSc1ncccc1C(=O)O)NC1CCCCC1 | 39.8 (≈ 135 µM)
5 | COc1cccc(N2C(=O)C3C(C2=O)C3(c2ccccc2)c2ccccc2)c1 (stereo not given) | 6.3 (≈ 17.1 µM)
6 | O=C(CCCn1cc([N+](=O)[O-])cn1)N1CCCCC1 | > 39.9
7 | CC(C)Cc1ccc(C(=O)NCc2ccc3c(c2)OCO3)o1 | 28.3 (≈ 93.9 µM)
8 | S=C(NCc1ccco1)NCC1CCCO1 (stereo not given) | 34.8 (≈ 145 µM)
9 | CC1CCCCC12NC(=O)N(CC(=O)Nc1nccs1)C2=O (stereo not given) | > 48.4
10 | CC1(N(O)/C=C2\C=CC=CC2=O)CCCCC1=O (stereo not given) | > 37.1
11 | CC1(C)OC(=O)C(=CNc2ccccn2)C(=O)O1 | 28.5 (≈ 115 µM)
12 | COc1ccc(CSc2nc(C)cc(C)c2C#N)cc1 | 2.7 (≈ 9.49 µM)
13 | Cc1ccc(S(=O)(=O)N[C@H](C(=O)OCC(=O)NC(=O)NCc2ccco2)C(C)C)cc1 | > 67.7
14 | Cc1cccc(C)c1NC(=O)NC1(C(=O)NCc2ccncc2)CCCCC1 | > 57.1
15 | CC(=NCCN(C)C)c1c(O)n(Cc2ccccc2)c(=O)[nH]c1=O | > 49.6
16 | COC(=O)Cn1c(C(O)c2ccccc2)nc2ccccc21 (stereo not given) | > 44.4
17 | Cc1cc(=O)cc(C)n1-c1ccccc1N | 31.1 (≈ 145 µM)
18 | CCOc1ccc(CC(=O)Nc2nccs2)cc1OCC | 31.7 (≈ 103 µM)
19 | COc1ccc2[nH]c(=O)c(CNc3ccccc3C)cc2c1 | 27.6 (≈ 93.8 µM)
20 | COc1ccccc1Nc1nc(NCC(C)C)nc(N)c1[N+](=O)[O-] | 0.3 (≈ 0.903 µM)

Row | SMILES | solubility kinetic [µg/mL]
21 | O=S1(=O)C[C@@H](O)[C@@H](Nc2ccccc2)C1 | > 34.1
22 | CCCCOc1ccc(OCCCN2CCOCC2)cc1.Cl | > 49.5
23 | Cc1cccc(NC(=O)Nc2cnccn2)c1C | 1.9 (≈ 7.84 µM)
24 | CCc1cc2c(Nc3ccc(O)cc3)nc(C)nc2s1.Cl | 13.4
25 | OCCN1CCN(C(c2cccs2)c2ccc3cccnc3c2O)CC1 (stereo not given) | 44 (≈ 119 µM)
26 | CCCCN1C(=O)c2ccc(C(=O)OCC(=O)NCCc3ccc(S(N)(=O)=O)cc3)cc2C1=O | 42.1 (≈ 86.4 µM)
27 | Cc1ccc(NC(=O)CCN2CCC(C(N)=O)CC2)cc1 | > 43.4
28 | Cc1nc2ccccc2c(=O)n1-c1ccc(Cl)cc1[N+](=O)[O-] | 7.2 (≈ 22.8 µM)
29 | COc1ccc(NCCc2ccccn2)cc1.Cl | > 45.2
30 | CN1CCN(CCn2c(=S)[nH]c3ccccc3c2=O)CC1 | > 45.7
31 | O=C(CSc1nnc(C2CC2)n1C1CC1)c1ccccc1F | > 47.6
32 | CCC1CCC2(CC1)NC(=O)N(CC(=O)NCc1ccc(Cl)cc1)C2=O (stereo not given) | 3.7 (≈ 9.79 µM)
33 | Cc1ccc2oc(=O)n(CCCOc3ccccc3C)c2c1 | 0.9 (≈ 3.03 µM)
34 | CC12CN3CC(C)(CN(C1)C3c1ccc3c(c1)OCO3)C2O (stereo not given) | > 45.4
35 | COC(=O)CCC(=O)N1CCCC(CO)(Cc2ccccc2F)C1 (stereo not given) | > 50.6
36 | Clc1ccc(N2CC2c2ccncc2)cc1 (stereo not given) | 32.6 (≈ 141 µM)
37 | CCOc1ccc(N/C(C)=C/C(=O)c2ccc3c(c2)OCCO3)cc1 | 0.8 (≈ 2.36 µM)
38 | Cc1noc(/C=C/c2cccnc2)c1[N+](=O)[O-] | 33.7 (≈ 146 µM)
39 | C/C(=C\c1ccccc1)CN1CCN(C(C)C)C(CCO)C1 (stereo not given) | > 45.4
40 | O=[N+]([O-])c1ccccc1O[C@@H]1O[C@H](CO)[C@H](O)[C@H](O)[C@H]1O | > 45.2

Row | SMILES | solubility kinetic [µg/mL]
41 | Brc1cc2c(cc1CSc1ncccn1)OCO2 | 0.9 (≈ 2.77 µM)
42 | O=C(NC(CO)C(=O)OCc1ccccc1)OCc1ccccc1 (stereo not given) | > 49.4
43 | CCCCCCNC(=O)Cc1ccc(Br)cc1 | 5 (≈ 16.8 µM)
44 | CC(C)CNC(=O)c1ccc2c(c1)C(=O)N(Cc1ccco1)C2=O | 25.9 (≈ 79.4 µM)
45 | N#CCCN(C(=O)COC(=O)CCc1ccccc1)c1ccccc1 | 44.8 (≈ 133 µM)
46 | O=C(NCc1ccc(F)cc1)c1cc(C(=O)C2CC2)c[nH]1 | 4.2 (≈ 14.7 µM)
47 | CN(C(=O)CN1C(=O)NC2(CCc3ccccc32)C1=O)C1CCCCC1 (stereo not given) | > 53.3
48 | CC(=O)N1CCc2c(sc(NC(=O)Cc3ccc(F)cc3)c2C#N)C1 | < 0.3
49 | CCc1c(C(=O)Nc2ccccc2C(N)=O)csc1C | 3.6 (≈ 12.5 µM)
50 | COCC(C)NC(=O)c1cc2cc(OC)ccc2[nH]1 (stereo not given) | 29.7 (≈ 113 µM)
51 | C=C(Br)Cn1cnc2ccccc21 | > 35.6
52 | CCN1CCN(Cc2cc(OC)c3c(c2)OCO3)CC1 | 33.9 (≈ 122 µM)
53 | Cc1csc(SC(C)C(=O)Nc2ccc(F)cc2Cl)n1 (stereo not given) | 44.9 (≈ 136 µM)
54 | CC(=O)N1c2ccc(S(=O)(=O)N3CCCCC3)cc2CC1C (stereo not given) | > 48.4
55 | Cc1ccc2[nH]c(O)c(N=O)c2c1 | > 26.4
56 | N#Cc1ccc(NCCc2ccccn2)c([N+](=O)[O-])c1 | > 40.2
57 | O=C(O)c1cc(-c2ccc(Cl)s2)nc2ccccc12 | 41.5 (≈ 143 µM)
58 | CCOC(=O)c1ccc(Nc2c(OCC)c(=O)c2=O)cc1 | 21.6 (≈ 74.7 µM)
59 | Cc1ccsc1C(=O)NCc1ccc(Cl)cc1 | 1.8 (≈ 6.77 µM)
60 | COc1ccccc1CNC(=O)c1ccc(NC(=O)CC2SC(N3CCCC3)=NC2=O)cc1 (stereo not given) | 9.4 (≈ 20.1 µM)

Reference: PubChem BioAssay AID1996
